From US20240358693A1, “METHODS OF TREATING PAIN” (Aisa Pharma, Inc., priority 2023, published 2024)

System: participants with SSc-RP
Experiment: Scleroderma Health Assessment Questionnaire (SHAQ): disability indices and visual analog scales
Assay type: in vivo, human
Conditions: Part A, sensitivity analysis
In short: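 Participants with SSc-RP completed the SHAQ at screening and each in-clinic visit. Standard and alternative disability indices (eight categories, 0–3; standard adjusts for aids/assistance) plus Raynaud's VAS on interference over the past 7 days. Reported as absolute change from baseline to end of each dosing period.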

[1] = PP Population, cilnidipine 10 mg and/or tadalafil 5 mg as labelled
[2] = PP Population, cilnidipine 20 mg, plus tadalafil 5 mg where labelled
[3] = PP Population, pooled cilnidipine 10 mg and 20 mg arms (plus tadalafil 5 mg where labelled)
[4] = Pooled Cilnidipine 10 mg and Cilnidipine 10 mg + Tadalafil 5 mg (N = 9), Modified ITT

COCCOC(=O)C1=C(C)NC(C)=C(C(=O)OC/C=C/c2ccccc2)C1c1cccc([N+](=O)[O-])c1 (stereo not drawn) [Cilnidipine, cilnidipine]
SHAQ Visual Analogue Scale - Intestinal Problems: Change from Baseline (Day 12), Median [1]: −1.550
SHAQ Visual Analogue Scale - Intestinal Problems: In-Clinic Visit (Day 12), Mean [1]: 1.100
SHAQ Visual Analogue Scale - Intestinal Problems: In-Clinic Visit (Day 12), Median [1]: 0.300
SHAQ Visual Analogue Scale - Intestinal Problems: Percent Change from Baseline (Day 12), Mean [1]: −77.37%
SHAQ Visual Analogue Scale - Intestinal Problems: Percent Change from Baseline (Day 12), Median [1]: −88.00%
SHAQ Visual Analogue Scale - Overall Disease Severity: Baseline, Mean [1]: 2.725
SHAQ Visual Analogue Scale - Overall Disease Severity: Baseline, Median [1]: 1.900
SHAQ Visual Analogue Scale - Overall Disease Severity: Change from Baseline (Day 12), Mean [1]: −0.900
SHAQ Visual Analogue Scale - Overall Disease Severity: Change from Baseline (Day 12), Median [1]: −0.950
SHAQ Visual Analogue Scale - Overall Disease Severity: In-Clinic Visit (Day 12), Mean [1]: 1.825
SHAQ Visual Analogue Scale - Overall Disease Severity: In-Clinic Visit (Day 12), Median [1]: 1.050
SHAQ Visual Analogue Scale - Overall Disease Severity: Percent Change from Baseline (Day 12), Mean [1]: −56.96%
SHAQ Visual Analogue Scale - Overall Disease Severity: Percent Change from Baseline (Day 12), Median [1]: −44.12%
SHAQ Visual Analogue Scale - Raynaud's: Baseline, Mean [1]: 1.600
SHAQ Visual Analogue Scale - Raynaud's: Baseline, Median [1]: 1.000
SHAQ Visual Analogue Scale - Raynaud's: Change from Baseline (Day 12), Mean [1]: 0.325
SHAQ Visual Analogue Scale - Raynaud's: Change from Baseline (Day 12), Median [1]: 0.350
SHAQ Visual Analogue Scale - Raynaud's: In-Clinic Visit (Day 12), Mean [1]: 1.925
SHAQ Visual Analogue Scale - Raynaud's: In-Clinic Visit (Day 12), Median [1]: 1.700
SHAQ Visual Analogue Scale - Raynaud's: Percent Change from Baseline (Day 12), Mean [1]: 11.36%
SHAQ Visual Analogue Scale - Raynaud's: Percent Change from Baseline (Day 12), Median [1]: −2.27%
SHAQ Visual Analogue Scale - Breathing Problems: Baseline, Mean [2]: 1.325
SHAQ Visual Analogue Scale - Breathing Problems: Baseline, Median [2]: 1.550
SHAQ Visual Analogue Scale - Breathing Problems: Change from Baseline (Day 12), Mean [2]: −0.475
SHAQ Visual Analogue Scale - Breathing Problems: Change from Baseline (Day 12), Median [2]: −0.250
SHAQ Visual Analogue Scale - Breathing Problems: In-Clinic Visit (Day 12), Mean [2]: 0.850
SHAQ Visual Analogue Scale - Breathing Problems: In-Clinic Visit (Day 12), Median [2]: 0.450
SHAQ Visual Analogue Scale - Breathing Problems: Percent Change from Baseline (Day 12), Mean [2]: 3.73%
SHAQ Visual Analogue Scale - Breathing Problems: Percent Change from Baseline (Day 12), Median [2]: −17.54%
SHAQ Visual Analogue Scale - Finger Ulcers: Baseline, Mean [2]: 1.800
SHAQ Visual Analogue Scale - Finger Ulcers: Baseline, Median [2]: 0.300
SHAQ Visual Analogue Scale - Finger Ulcers: Change from Baseline (Day 12), Mean [2]: −0.933
SHAQ Visual Analogue Scale - Finger Ulcers: Change from Baseline (Day 12), Median [2]: 0.000
SHAQ Visual Analogue Scale - Finger Ulcers: In-Clinic Visit (Day 12), Mean [2]: 0.650
SHAQ Visual Analogue Scale - Finger Ulcers: In-Clinic Visit (Day 12), Median [2]: 0.350
SHAQ Visual Analogue Scale - Finger Ulcers: Percent Change from Baseline (Day 12), Mean [2]: 35.29%
SHAQ Visual Analogue Scale - Finger Ulcers: Percent Change from Baseline (Day 12), Median [2]: 35.29%
SHAQ Visual Analogue Scale - Intestinal Problems: Baseline, Mean [2]: 0.700
SHAQ Visual Analogue Scale - Intestinal Problems: Baseline, Median [2]: 0.650
SHAQ Visual Analogue Scale - Intestinal Problems: Change from Baseline (Day 12), Mean [2]: 0.150
SHAQ Visual Analogue Scale - Intestinal Problems: Change from Baseline (Day 12), Median [2]: 0.150
SHAQ Visual Analogue Scale - Intestinal Problems: In-Clinic Visit (Day 12), Mean [2]: 0.850
SHAQ Visual Analogue Scale - Intestinal Problems: In-Clinic Visit (Day 12), Median [2]: 0.650
SHAQ Visual Analogue Scale - Intestinal Problems: Percent Change from Baseline (Day 12), Mean [2]: −10.00%
SHAQ Visual Analogue Scale - Intestinal Problems: Percent Change from Baseline (Day 12), Median [2]: 30.00%
SHAQ Visual Analogue Scale - Overall Disease Severity: Baseline, Mean [2]: 3.125
SHAQ Visual Analogue Scale - Overall Disease Severity: Baseline, Median [2]: 2.950
SHAQ Visual Analogue Scale - Overall Disease Severity: Change from Baseline (Day 12), Mean [2]: −2.000
SHAQ Visual Analogue Scale - Overall Disease Severity: Change from Baseline (Day 12), Median [2]: −1.700
SHAQ Visual Analogue Scale - Overall Disease Severity: In-Clinic Visit (Day 12), Mean [2]: 1.125
SHAQ Visual Analogue Scale - Overall Disease Severity: In-Clinic Visit (Day 12), Median [2]: 1.300
SHAQ Visual Analogue Scale - Overall Disease Severity: Percent Change from Baseline (Day 12), Mean [2]: −64.20%
SHAQ Visual Analogue Scale - Overall Disease Severity: Percent Change from Baseline (Day 12), Median [2]: −64.44%
SHAQ Visual Analogue Scale - Raynaud's: Baseline, Mean [2]: 3.075
SHAQ Visual Analogue Scale - Raynaud's: Baseline, Median [2]: 3.000
SHAQ Visual Analogue Scale - Raynaud's: Change from Baseline (Day 12), Mean [2]: −1.200
SHAQ Visual Analogue Scale - Raynaud's: Change from Baseline (Day 12), Median [2]: −1.050
SHAQ Visual Analogue Scale - Raynaud's: In-Clinic Visit (Day 12), Mean [2]: 1.875
SHAQ Visual Analogue Scale - Raynaud's: In-Clinic Visit (Day 12), Median [2]: 1.250
SHAQ Visual Analogue Scale - Raynaud's: Percent Change from Baseline (Day 12), Mean [2]: −41.11%
SHAQ Visual Analogue Scale - Raynaud's: Percent Change from Baseline (Day 12), Median [2]: −38.67%
SHAQ Alternative Disability Index: Baseline, Mean [3]: 0.359
SHAQ Alternative Disability Index: Baseline, Median [3]: 0.250
SHAQ Alternative Disability Index: Change from Baseline (Day 12), Mean [3]: 0.031
SHAQ Alternative Disability Index: Change from Baseline (Day 12), Median [3]: 0.000
SHAQ Alternative Disability Index: In-Clinic Visit (Day 12), Mean [3]: 0.391
SHAQ Alternative Disability Index: In-Clinic Visit (Day 12), Median [3]: 0.188
SHAQ Alternative Disability Index: Percent Change from Baseline (Day 12), Mean [3]: 9.68%
SHAQ Alternative Disability Index: Percent Change from Baseline (Day 12), Median [3]: −11.11%
SHAQ Standard Disability Index: Baseline, Mean [4]: 0.597
SHAQ Standard Disability Index: Baseline, Median [4]: 0.500
SHAQ Standard Disability Index: Change from Baseline, Mean [4]: −0.021
SHAQ Standard Disability Index: Change from Baseline, Median [4]: 0.000
SHAQ Standard Disability Index: Day 12, Mean [4]: 0.576
SHAQ Standard Disability Index: Day 12, Median [4]: 0.375
SHAQ Standard Disability Index: Percent Change from Baseline, Mean [4]: 7.50%
SHAQ Standard Disability Index: Percent Change from Baseline, Median [4]: 0.00%
SHAQ VAS Breathing Problems: Baseline, Mean [4]: 1.511
SHAQ VAS Breathing Problems: Baseline, Median [4]: 0.800
SHAQ VAS Breathing Problems: Change from Baseline, Mean [4]: −0.175
SHAQ VAS Breathing Problems: Change from Baseline, Median [4]: 0.000
SHAQ VAS Breathing Problems: Day 12, Mean [4]: 1.375
SHAQ VAS Breathing Problems: Day 12, Median [4]: 0.000
SHAQ VAS Breathing Problems: Percent Change from Baseline, Mean [4]: −26.05%
SHAQ VAS Breathing Problems: Percent Change from Baseline, Median [4]: −21.33%
SHAQ VAS Finger Ulcers: Baseline, Mean [4]: 0.656
SHAQ VAS Finger Ulcers: Baseline, Median [4]: 0.200
SHAQ VAS Finger Ulcers: Change from Baseline, Mean [4]: −0.267
SHAQ VAS Finger Ulcers: Change from Baseline, Median [4]: −0.100
SHAQ VAS Finger Ulcers: Day 12, Mean [4]: 0.389
SHAQ VAS Finger Ulcers: Day 12, Median [4]: 0.000
SHAQ VAS Finger Ulcers: Percent Change from Baseline, Mean [4]: −46.06%
SHAQ VAS Finger Ulcers: Percent Change from Baseline, Median [4]: −31.94%
SHAQ VAS Intestinal Problems: Baseline, Mean [4]: 2.444
SHAQ VAS Intestinal Problems: Baseline, Median [4]: 1.100
SHAQ VAS Intestinal Problems: Change from Baseline, Mean [4]: −1.228
SHAQ VAS Intestinal Problems: Change from Baseline, Median [4]: −0.250
SHAQ VAS Intestinal Problems: Day 12, Mean [4]: 1.217
SHAQ VAS Intestinal Problems: Day 12, Median [4]: 0.700
SHAQ VAS Intestinal Problems: Percent Change from Baseline, Mean [4]: −27.93%
SHAQ VAS Intestinal Problems: Percent Change from Baseline, Median [4]: −54.13%
SHAQ VAS Overall Disease Severity: Baseline, Mean [4]: 3.044
SHAQ VAS Overall Disease Severity: Baseline, Median [4]: 1.900
SHAQ VAS Overall Disease Severity: Change from Baseline, Mean [4]: −0.606
SHAQ VAS Overall Disease Severity: Change from Baseline, Median [4]: −0.700
SHAQ VAS Overall Disease Severity: Day 12, Mean [4]: 2.439
SHAQ VAS Overall Disease Severity: Day 12, Median [4]: 1.900
SHAQ VAS Overall Disease Severity: Percent Change from Baseline, Mean [4]: −24.68%
SHAQ VAS Overall Disease Severity: Percent Change from Baseline, Median [4]: −30.93%
SHAQ VAS Pain: Baseline, Mean [4]: 3.278
SHAQ VAS Pain: Baseline, Median [4]: 3.100
SHAQ VAS Pain: Change from Baseline, Mean [4]: −0.633
SHAQ VAS Pain: Change from Baseline, Median [4]: −0.700
SHAQ VAS Pain: Day 12, Mean [4]: 2.644
SHAQ VAS Pain: Day 12, Median [4]: 2.900
SHAQ VAS Pain: Percent Change from Baseline, Mean [4]: −20.07%
SHAQ VAS Pain: Percent Change from Baseline, Median [4]: −21.87%
SHAQ VAS Raynaud's: Baseline, Mean [4]: 2.733
SHAQ VAS Raynaud's: Baseline, Median [4]: 1.400
SHAQ VAS Raynaud's: Change from Baseline, Mean [4]: −0.414
SHAQ VAS Raynaud's: Change from Baseline, Median [4]: −0.100
SHAQ VAS Raynaud's: Day 12, Mean [4]: 2.319
SHAQ VAS Raynaud's: Day 12, Median [4]: 2.600
